According to patent US20120323016A1, “METHOD OF PREPARING DERIVATIVES/OLIGOMERS OF EPICATECHIN AND APPLICATIONS THEREOF” (NATIONAL UNIVERSITY OF SINGAPORE, priority 2009, published 2012):

Experiment: Oxygen radical absorbance capacity (ORAC) assay
Method: Peroxyl radical scavenging capacity of the EC2S2 was determined using oxygen radical absorbance capacity (ORAC) assay (Huang, D.; Ou, B.; Hampsch-Woodill, M.; Flanagan, J. A.; Prior, R. L. High-throughput assay of oxygen radical absorbance capacity (ORAC) using a multichannel liquid handling system coupled with a microplate fluorescence reader in 96-well format. Journal of Agricultural and Food Chemistry (2002), 50(16), 4437-4444.). […] The net area under the curve has excellent linear relationship with the concentration of EC2S2. The ORAC value calculated from the individual concentration is 10.79±0.58 μmol TE/μmol sample. This is the highest ORAC value reported for pure antioxidant compounds.

For `Oc1cc(O)c2c(c1)O[C@H](c1ccc(O)c(O)c1)[C@H](O)[C@H]2SCCS[C@H]1c2c(O)cc(O)cc2O[C@H](c2ccc(O)c(O)c2)[C@@H]1O` [EC2S2, (2R,2′R,3S,3′S,4S,4′S)-4,4′-(ethane-1,2-diylbis(sulfanediyl))bis(2-(3,4-dihydroxyphenyl)chroman-3,5,7-triol)], the “antioxidant activity relative to EC” value (EC2S2 synthesized from Pine Bark OPCs, compared with EC) was “two times higher than EC” and the “ORAC value (peroxyl radical scavenging capacity)” value (calculated from the individual concentration, Trolox standard) was 10.79±0.58 μmol TE/μmol sample.
